# Tested on: male and female Sprague–Dawley rats
# Test: 90-day subchronic oral gavage toxicity study
# Assay type: in vivo, rat
# Parameters: key to NOEL, absolute liver weight increase / LOEL, absolute liver weight increase / NOEL, relative kidney weight increase / LOEL, relative kidney weight increase / NOEL, absolute kidney weight increase / LOEL, absolute kidney weight increase / NOEL, relative liver weight increase / LOEL, relative liver weight increase: NR: no response, no statistically significant dose-dependent changes
# Procedure: Subchronic (90-day) studies were performed in accordance with current U.S. EPA’s Toxic Substances Control Act Good Laboratory Practice (GLP) Standards, with the following two general exceptions to the GLP guidelines: Analysis of the dose formulations was conducted according to RTI-approved Standard Operating Procedures, and corn oil (the vehicle) was not characterized (certificate of analysis from the vendor is available in the appendices to the final reports). Male and female Sprague–Dawley rats (five dose levels plus a control, n = 10/sex/dose group, corn oil vehicle dose volume of 3 mL/kg; oral gavage) were used in these studies, and the rats were euthanized on SD 91. The dose levels for PFHI were 0, 12.5, 25, 50, 100, and 200 mg/kg-day. The dose levels for MHFPK were 0, 18.8, 37.5, 75, 150, and 300 mg/kg-day. The dose levels for PFNAC were 0, 0.1, 0.3, 1.0, 3.0, and 10 mg/kg-day for male rats and 0, 0.3, 1.0, 3.0, 10, and 30 mg/kg-day for female rats. For CTFPA, the dose levels were 0, 1.9, 3.8. 7.5, 15, and 30 mg/kg-day for male rats and 0, 6.3, 12.5, 25, 50, and 100 mg/kg-day for female rats. For each PFAS, three batches of dosing solution were prepared. The time between the batch preparation of the dosing solutions ranged between 29 and 39 days. Blood samples were collected from all the rats at termination for serum chemistry, hematology, coagulation, and the analysis of the parent PFAS chemical in the plasma. In vivo data collection and further detail on the endpoints examined postmortem are described below.
# The rats were observed twice daily for morbidity and mortality throughout the study period. At least once prior to randomization to test groups and weekly thereafter, the rats were physically examined, and bodyweights were obtained. Feed consumption was quantified weekly starting on SD 1.
# Neurotoxicity was evaluated using the functional observational battery (FOB) and measuring locomotor activity (LMA) 2–4 h post dosing on SDs 78–80 and 80–84, respectively. For both the 14- and 90-day studies, an ophthalmologic examination was conducted prior to randomization and near the end of the study, using indirect ophthalmoscopy and slit–lamp biomicroscopy (as needed) after the administration of a mydriatic solution.
# Hematology, biochemistry, and coagulation endpoints were measured at the termination of the study. A Siemens Advia 2120i hematology analyzer (Siemens Healthineers, Erlangen, Germany) was used to measure (or calculate) the parameters related to the complete blood count, leukocyte differential count, and reticulocyte count. The hematology parameters are listed and described in Table 2. The prothrombin time […] and activated partial thromboplastin time (APTT) were measured using an Instrumentation Laboratory (Bedford, MA, USA) ACL Elite Pro coagulation analyzer (laser–nephelometric centrifugal method).
# At necropsy, the rats were visually examined for external abnormalities and organ weights (absolute and relative to the BW and brain weight), which were recorded (paired organs weighed together). The tissues were preserved in 10% neutral buffered formalin (NBF), except for the ocular tissues, testes, and epididymides, which were preserved in modified Davidson’s fixative and later transferred to 10% NBF. Bone marrow smears were prepared from the femurs, and the slides were air-dried, fixed in methanol, stained, and stored at room temperature for possible future evaluation. The preserved tissues were embedded in paraffin, sectioned, stained with hematoxylin and eosin, and examined by a board-certified veterinary pathologist.
# Statistical analysis was performed using Provantis™ Version 10 or greater (Instem LSS, Limited; Stone, Staffordshire, UK). Differences among the treatment groups compared to the control were evaluated using one-way analysis of variance (ANOVA) if the underlying assumptions of a normal distribution (Shapiro–Wilk test) and the homogeneity of the variance (Levene’s test) were satisfied. […]
smiles,measurement,setting,value
"O=C(O)C(F)(Cl)C(F)(F)F (stereo not shown) [CTFPA, 2-Chloro-2,3,3,3-tetrafluoropropanoic acid]",Bodyweight (BW) and bodyweight gain,"90-day, both sexes, all doses",None CTPFA related
same,Clinical chemistry,"90-day, both sexes, all doses","From minimal to mild increases in albumin and the A/G ratio in males at ≥7.5 mg/kg-day and in females at ≥50 mg/kg; only in males—from minimal to mild decreases in globulin at ≥7.5 mg/kg-day; from minimal to mild increases in ALPi at ≥7.5 mg/kg-day, and minimally increased BUN at 30 mg/kg-day"
same,Clinical observations,"90-day, both sexes, all doses",None
same,Coagulation endpoints,"90-day, both sexes, all doses",From minimal to mild dose-dependent decreased APTT in males at ≥3.8 mg/kg; no effect in females
same,Feed consumption,"90-day, both sexes, all doses","Significant non-adverse increases in males at ≥3.8 mg/kg-day; minor effects in females, not considered as CTFPA related"
same,Functional observational battery,"90-day, both sexes, all doses",No changes
same,Gross lesions,"90-day, both sexes, all doses",None considered as CTFPA related
same,Hematology,"90-day, both sexes, all doses","From minimal to mild decreases in red cell mass (RBC, HCT, and HGB) and increases in RDW in males at ≥7.5 mg/kg-day; no similar effect in females; from minimal to mild increased MPV in males at ≥3.8 mg/kg-day and in females at ≥50 mg/kg-day"
same,Histopathology,"90-day, both sexes, all doses",The liver of males and females; the heart and nasal turbinates of males
same,Locomotor activity,"90-day, both sexes, all doses",No effects
same,Morbidity and mortality,"90-day, both sexes, all doses",None
same,Ophthalmology,"90-day, both sexes, all doses",No ocular lesions
same,Organ weight changes,"90-day, both sexes, all doses",Mean absolute and/or relative liver weight increases in males at ≥3.8 mg/kg-day and in females at ≥25 mg/kg-day ^6; mean thymus weights increased in males at ≥15 mg/kg-day; mean kidney weights increased in females at ≥50 mg/kg-day
same,"BMD10, absolute liver weight increase",female,13.6 mg/kg-day
same,"BMDL, absolute liver weight increase",female,5.1 mg/kg-day
same,"LOEL, absolute kidney weight increase",female,NR
same,"LOEL, absolute liver weight increase",female,25 mg/kg-day
same,"LOEL, relative kidney weight increase",female,NR
same,"LOEL, relative liver weight increase",female,25 mg/kg-day
same,"NOEL, absolute kidney weight increase",female,NR
same,"NOEL, absolute liver weight increase",female,12.5 mg/kg-day
same,"NOEL, relative kidney weight increase",female,NR
same,"NOEL, relative liver weight increase",female,12.5 mg/kg-day
same,A/G,"female, 1.9 mg/kg-day",1.10±0.09 ratio
same,ALB,"female, 1.9 mg/kg-day",4.07 ± 0.31 g/dL
same,ALPi,"female, 1.9 mg/kg-day",49.7±22.7 U/L
same,BUN,"female, 1.9 mg/kg-day",16.4 ± 3.6 mg/dL
same,CHOL,"female, 1.9 mg/kg-day",94.7 ± 23.9 mg/dL
same,GLOB,"female, 1.9 mg/kg-day",3.69 ± 0.19 g/dL
same,GLUC,"female, 1.9 mg/kg-day",140.7 ± 21.5 mg/dL
same,A/G,"female, 3.8 mg/kg-day",1.17±0.10 ratio
same,ALB,"female, 3.8 mg/kg-day",4.41 ± 0.33 g/dL
same,ALPi,"female, 3.8 mg/kg-day",56.6±19.8 U/L
same,BUN,"female, 3.8 mg/kg-day",16.5 ± 3.0 mg/dL
same,CHOL,"female, 3.8 mg/kg-day",95.9 ± 14.5 mg/dL
same,GLOB,"female, 3.8 mg/kg-day",3.78 ± 0.20 g/dL
same,GLUC,"female, 3.8 mg/kg-day",133.0 ± 25.5 mg/dL
same,% BW Gain,"female, 6.3 mg/kg-day",59.29%
same,"% Diff, % BW Gain","female, 6.3 mg/kg-day",12.55%
same,"% Diff, Total BW change","female, 6.3 mg/kg-day",13.40%
same,"% Diff, Total Food Consumed","female, 6.3 mg/kg-day",8.28%
same,APTT,"female, 6.3 mg/kg-day",17.76 s
same,HCT,"female, 6.3 mg/kg-day",47.57±2.23%
same,HGB,"female, 6.3 mg/kg-day",15.03 ± 0.80 g/dL
same,Kidney Weight,"female, 6.3 mg/kg-day",1.91 g
same,Kidney/Body Weight,"female, 6.3 mg/kg-day",0.57%
same,Kidney/Brain Weight,"female, 6.3 mg/kg-day",95.5%
same,Liver Weight,"female, 6.3 mg/kg-day",8.76 g
same,Liver/Body Weight,"female, 6.3 mg/kg-day",2.59%
same,Liver/Brain Weight,"female, 6.3 mg/kg-day",437%
same,MPV,"female, 6.3 mg/kg-day",7.57 ± 0.49 fL
same,PT,"female, 6.3 mg/kg-day",14.58 s
same,Total BW change,"female, 6.3 mg/kg-day",129.35 g
same,Total Food Consumed,"female, 6.3 mg/kg-day",1671 g
same,A/G,"female, 7.5 mg/kg-day",1.18±0.14 ratio
same,ALB,"female, 7.5 mg/kg-day",4.36 ± 0.42 g/dL
same,ALPi,"female, 7.5 mg/kg-day",54.6±16.8 U/L
same,BUN,"female, 7.5 mg/kg-day",16.4 ± 2.4 mg/dL
same,CHOL,"female, 7.5 mg/kg-day",98.2 ± 26.4 mg/dL
same,GLOB,"female, 7.5 mg/kg-day",3.70 ± 0.28 g/dL
same,GLUC,"female, 7.5 mg/kg-day",143.6 ± 21.3 mg/dL
same,% BW Gain,"female, 12.5 mg/kg-day",56.17%
same,"% Diff, % BW Gain","female, 12.5 mg/kg-day",6.64%
same,"% Diff, Total BW change","female, 12.5 mg/kg-day",5.12%
same,"% Diff, Total Food Consumed","female, 12.5 mg/kg-day",1.02%
same,APTT,"female, 12.5 mg/kg-day",16.20 s
same,HCT,"female, 12.5 mg/kg-day",45.99±2.31%
same,HGB,"female, 12.5 mg/kg-day",14.52 ± 0.79 g/dL
same,Kidney Weight,"female, 12.5 mg/kg-day",1.97 g
same,Kidney/Body Weight,"female, 12.5 mg/kg-day",0.60%
same,Kidney/Brain Weight,"female, 12.5 mg/kg-day",93.7%
same,Liver Weight,"female, 12.5 mg/kg-day",8.97 g
same,Liver/Body Weight,"female, 12.5 mg/kg-day",2.71%
same,Liver/Brain Weight,"female, 12.5 mg/kg-day",428%
same,MPV,"female, 12.5 mg/kg-day",8.00 ± 0.97 fL
same,PT,"female, 12.5 mg/kg-day",14.17 s
same,Total BW change,"female, 12.5 mg/kg-day",119.91 g
same,Total Food Consumed,"female, 12.5 mg/kg-day",1559 g
same,A/G,"female, 15 mg/kg-day",1.19±0.08 ratio
same,ALB,"female, 15 mg/kg-day",4.46 ± 0.44 g/dL
same,ALPi,"female, 15 mg/kg-day",57.7±20.2 U/L
same,BUN,"female, 15 mg/kg-day",16.3 ± 2.3 mg/dL
same,CHOL,"female, 15 mg/kg-day",96.5 ± 26.2 mg/dL
same,GLOB,"female, 15 mg/kg-day",3.73 ± 0.20 g/dL
same,GLUC,"female, 15 mg/kg-day",154.6 ± 21.6 mg/dL
same,% BW Gain,"female, 25 mg/kg-day",53.36%
same,"% Diff, % BW Gain","female, 25 mg/kg-day",1.29%
same,"% Diff, Total BW change","female, 25 mg/kg-day",1.52%
same,"% Diff, Total Food Consumed","female, 25 mg/kg-day",2.96%
same,APTT,"female, 25 mg/kg-day",21.82 s
same,HCT,"female, 25 mg/kg-day",46.61±2.96%
same,HGB,"female, 25 mg/kg-day",14.62 ± 1.04 g/dL
same,Kidney Weight,"female, 25 mg/kg-day",1.97 g
same,Kidney/Body Weight,"female, 25 mg/kg-day",0.60%
same,Kidney/Brain Weight,"female, 25 mg/kg-day",95.0%
same,Liver Weight,"female, 25 mg/kg-day",9.97 g
same,Liver/Body Weight,"female, 25 mg/kg-day",3.02%
same,Liver/Brain Weight,"female, 25 mg/kg-day",483%
same,MPV,"female, 25 mg/kg-day",7.65 ± 0.50 fL
same,PT,"female, 25 mg/kg-day",14.34 s
same,Total BW change,"female, 25 mg/kg-day",115.80 g
same,Total Food Consumed,"female, 25 mg/kg-day",1589 g
same,A/G,"female, 30 mg/kg-day",1.22±0.07 ratio
same,ALB,"female, 30 mg/kg-day",4.62 ± 0.45 g/dL
same,ALPi,"female, 30 mg/kg-day",74.1±17.5 U/L
same,BUN,"female, 30 mg/kg-day",18.3 ± 2.5 mg/dL
same,CHOL,"female, 30 mg/kg-day",101.9 ± 15.8 mg/dL
same,GLOB,"female, 30 mg/kg-day",3.77 ± 0.25 g/dL
same,GLUC,"female, 30 mg/kg-day",153.4 ± 21.2 mg/dL
same,% BW Gain,"female, 50 mg/kg-day",51.94%
same,"% Diff, % BW Gain","female, 50 mg/kg-day",-1.40%
same,"% Diff, Total BW change","female, 50 mg/kg-day",-0.34%
same,"% Diff, Total Food Consumed","female, 50 mg/kg-day",2.22%
same,APTT,"female, 50 mg/kg-day",17.22 s
same,HCT,"female, 50 mg/kg-day",45.75±1.73%
same,HGB,"female, 50 mg/kg-day",14.30 ± 0.57 g/dL
same,Kidney Weight,"female, 50 mg/kg-day",2.07 g
same,Kidney/Body Weight,"female, 50 mg/kg-day",0.63%
same,Kidney/Brain Weight,"female, 50 mg/kg-day",102%
same,Liver Weight,"female, 50 mg/kg-day",10.49 g
same,Liver/Body Weight,"female, 50 mg/kg-day",3.21%
same,Liver/Brain Weight,"female, 50 mg/kg-day",520%
same,MPV,"female, 50 mg/kg-day",8.10 ± 0.46 fL
same,PT,"female, 50 mg/kg-day",14.57 s
same,Total BW change,"female, 50 mg/kg-day",113.68 g
same,Total Food Consumed,"female, 50 mg/kg-day",1577 g
same,% BW Gain,"female, 100 mg/kg-day",49.85%
same,"% Diff, % BW Gain","female, 100 mg/kg-day",-5.37%
same,"% Diff, Total BW change","female, 100 mg/kg-day",-5.90%
same,"% Diff, Total Food Consumed","female, 100 mg/kg-day",4.68%
same,APTT,"female, 100 mg/kg-day",21.23 s
same,HCT,"female, 100 mg/kg-day",46.76±2.13%
same,HGB,"female, 100 mg/kg-day",14.60 ± 0.66 g/dL
same,Kidney Weight,"female, 100 mg/kg-day",2.05 g
same,Kidney/Body Weight,"female, 100 mg/kg-day",0.65%
same,Kidney/Brain Weight,"female, 100 mg/kg-day",104%

# Source: publication PMC12298827, “Subchronic Toxicities of Four Per- and Polyfluoroalkyl Substances (PFASs) by Oral Exposure in Sprague–Dawley Rats” (Toxics, 2025)
